In patent US20110152313A1 (MACQUARIE UNIVERSITY, priority 2008, published 2011):

Tests used:
Test in all cases: kinase binding screen (kinase-tagged T7 phage, qPCR), % Ctrl
MKNK2 = MKNK2 (Homo sapiens, UniProt Q9HBH9)
Outline: (§1)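 Kinase-tagged T7 phage lysates were prepared in E. coli (MOI 0.4, 32° C until lysis), then exposed to ligand-bearing beads and test compound at a fixed concentration. Kinase remaining bound was eluted and measured by qPCR.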

TBK1 = target: T1, TBK1 (Homo sapiens, UniProt Q9UHD2)
T1 sequence (Q9UHD2 1-729): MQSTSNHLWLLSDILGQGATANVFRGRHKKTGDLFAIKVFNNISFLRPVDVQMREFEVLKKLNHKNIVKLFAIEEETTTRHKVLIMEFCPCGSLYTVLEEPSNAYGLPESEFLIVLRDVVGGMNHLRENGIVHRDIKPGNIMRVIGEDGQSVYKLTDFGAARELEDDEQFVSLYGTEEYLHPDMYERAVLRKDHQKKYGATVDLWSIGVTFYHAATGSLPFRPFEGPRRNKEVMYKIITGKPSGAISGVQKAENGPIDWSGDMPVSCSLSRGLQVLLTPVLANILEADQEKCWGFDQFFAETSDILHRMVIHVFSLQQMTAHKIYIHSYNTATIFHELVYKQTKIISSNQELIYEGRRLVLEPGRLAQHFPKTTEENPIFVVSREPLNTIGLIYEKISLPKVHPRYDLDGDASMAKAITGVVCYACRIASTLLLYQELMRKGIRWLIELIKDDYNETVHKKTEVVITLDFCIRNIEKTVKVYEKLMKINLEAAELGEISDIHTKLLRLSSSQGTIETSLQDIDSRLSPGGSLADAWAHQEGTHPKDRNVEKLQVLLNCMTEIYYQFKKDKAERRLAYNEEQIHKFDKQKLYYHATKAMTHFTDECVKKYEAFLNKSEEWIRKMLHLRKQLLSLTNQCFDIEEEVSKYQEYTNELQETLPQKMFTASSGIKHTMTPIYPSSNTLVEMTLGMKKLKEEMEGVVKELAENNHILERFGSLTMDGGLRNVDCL
Outline: as §1

ULK1 = target: T2, ULK1 (Homo sapiens, UniProt O75385)
T2 sequence (O75385 1-1050): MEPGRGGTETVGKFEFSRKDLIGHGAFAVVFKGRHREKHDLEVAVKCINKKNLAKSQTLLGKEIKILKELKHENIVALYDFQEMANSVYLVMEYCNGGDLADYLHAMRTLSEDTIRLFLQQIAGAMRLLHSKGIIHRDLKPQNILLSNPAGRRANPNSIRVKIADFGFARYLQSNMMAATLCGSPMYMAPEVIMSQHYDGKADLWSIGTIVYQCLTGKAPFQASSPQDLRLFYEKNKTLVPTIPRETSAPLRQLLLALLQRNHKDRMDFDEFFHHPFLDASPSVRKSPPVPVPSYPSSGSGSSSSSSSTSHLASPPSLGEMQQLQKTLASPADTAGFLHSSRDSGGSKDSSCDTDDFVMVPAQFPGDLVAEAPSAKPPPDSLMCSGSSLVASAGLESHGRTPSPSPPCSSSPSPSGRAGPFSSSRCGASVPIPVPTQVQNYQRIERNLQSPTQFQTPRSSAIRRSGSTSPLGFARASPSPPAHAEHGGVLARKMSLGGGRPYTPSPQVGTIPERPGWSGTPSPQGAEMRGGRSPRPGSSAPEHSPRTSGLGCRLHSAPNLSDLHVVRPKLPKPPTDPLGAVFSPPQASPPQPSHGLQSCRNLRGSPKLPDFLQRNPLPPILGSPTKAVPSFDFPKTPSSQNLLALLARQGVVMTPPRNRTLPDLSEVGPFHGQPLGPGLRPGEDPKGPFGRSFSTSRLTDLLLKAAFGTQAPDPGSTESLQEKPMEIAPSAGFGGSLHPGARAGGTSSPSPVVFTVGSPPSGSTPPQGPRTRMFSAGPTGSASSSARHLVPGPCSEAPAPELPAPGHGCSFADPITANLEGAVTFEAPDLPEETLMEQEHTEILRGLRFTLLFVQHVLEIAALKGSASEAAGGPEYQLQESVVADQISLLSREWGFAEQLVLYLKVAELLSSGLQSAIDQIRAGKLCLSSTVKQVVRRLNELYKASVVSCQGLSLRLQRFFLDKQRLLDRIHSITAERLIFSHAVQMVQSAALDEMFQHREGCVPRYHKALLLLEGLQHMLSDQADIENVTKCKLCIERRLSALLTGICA
Outline: as §1

Sequence of MKNK2 (Q9HBH9 whole entry, species assumed): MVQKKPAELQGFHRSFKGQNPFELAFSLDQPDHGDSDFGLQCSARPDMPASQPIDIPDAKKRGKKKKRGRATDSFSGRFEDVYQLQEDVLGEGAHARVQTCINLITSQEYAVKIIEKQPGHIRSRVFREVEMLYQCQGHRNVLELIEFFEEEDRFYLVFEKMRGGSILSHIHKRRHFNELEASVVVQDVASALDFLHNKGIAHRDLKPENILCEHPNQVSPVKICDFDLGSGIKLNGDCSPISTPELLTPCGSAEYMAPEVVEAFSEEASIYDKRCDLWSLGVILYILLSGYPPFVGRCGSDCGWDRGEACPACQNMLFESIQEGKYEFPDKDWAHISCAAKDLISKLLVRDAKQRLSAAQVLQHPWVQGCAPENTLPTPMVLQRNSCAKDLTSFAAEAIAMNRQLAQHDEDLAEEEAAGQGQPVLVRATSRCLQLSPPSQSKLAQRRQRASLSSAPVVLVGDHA

SMILES	remaining activity at 1 µM (MKNK2)	remaining activity at 10 µM (MKNK2; 10 μM)	remaining activity at 1 µM (TBK1)	remaining activity at 10 µM (TBK1; 10 μM)	remaining activity at 1 µM (ULK1)	remaining activity at 10 µM (ULK1; 10 μM)
Nc1nc2c(-c3cc(Br)c(Br)[nH]3)nccc2[nH]1 [Ageladine A, ageladine A, reference compound]	2.5%	69%	84%	78%	62%	20%
Nc1nc2c(-c3ccccn3)nccc2[nH]1 [drawing 35, 4-(pyrid-2-yl)-1H-imidazo[4,5-c]pyridin-2-amine]	86%	–	50%	–	33%	–
Nc1nc2c(-c3cnc4ccccc4c3)nccc2[nH]1 [drawing 36, 4-(quinolin-3-yl)-1H-imidazo[4,5-c]pyridin-2-amine]	100%	–	79%	–	91%	–
